# Reference: patent US12391641B2, “Prostaglandin EP4 receptor antagonist compounds” (NXERA PHARMA UK LIMITED, priority 2019, dated 2025)
# Target: T1, Human prostaglandin E2 receptor 4 (EP4) (Homo sapiens, UniProt P35408)
# T1 construct: expressed in transfected cells; host or cells: HEK293 cells transduced with EP4 BacMam virus
# Assay: cAMP Gs Functional Assay (HTRF cAMP dynamic-2), antagonism of PGE2
# Assay type: cell-based
# Conditions: HEK293 cells transfected with EP4 BacMam virus; PGE2 challenge at EC80 (7 nM); pIC50 converted to functional pKb with a modified Cheng Prussoff equation; read-out: Human EP4 fpKb (converted)
# Protocol: Cloning, Baculovirus generation, large scale infection of HEK293 cells and membrane preparation: Human prostaglandin E2 receptor 4 (EP4) was cloned into pBacMam expression vector (GeneScript, UK). Transposition of EP4 DNA was performed using Invitrogen's Bac-to-Bac Baculovirus Expression Systems. P0 baculovirus was generated by transfecting SF9 Cells with bacmid DNA using Cellfectin II transfection reagent (ThermoFisher Scientific, UK, catalog number 10362-100). Following P0 generation P1 virus was then generated ready for large scale infection and membrane preparation. HEK293 cells were grown in DMEM+Glutamax, supplemented with 10% heat inactivated fetal bovine serum (FBS). Cells were infected at a seeding density of 3.5 million cells/mL in 500 cm^3 flasks at 5% v/v EP4 Bacman. Expression was carried out over 36 hr period at 37° C. with 5% CO2. The cells were removed using PBS and a cell scrapper. The cell culture was centrifuged at 2500 RPM for 10 mins at 4° C. The supernatant was then poured off and the pellet stored at −80° C. The pellet was defrosted and re-suspended in 15 mL of homogenising buffer (20 mM HEPES, 10 mM EDTA, pH 7.4). Then homogenised in mechanical homogeniser (VMR) for 10 seconds. The membrane was centrifuged in centrifuge tubes at 40,000 g for 15 mins at 4° C. The supernatant was poured away and re-suspended in 15 mL of homogenising buffer. Homogenised for 20 seconds. The membrane was centrifuged at 40,000 g for 45 mins at 4° C. The membrane was re-suspended in 3 mL of storage buffer (20 mM HEPES, 0.1 mM EDTA, pH 7.4) mixing well. The resulting membranes were then stored at −80° C.
# cAMP Gs Functional Assay: cAMP production following EP4 receptor activation was determined using the Homogeneous Time-Resolved Fluorescence (HTRF) cAMP dynamic-2 assay (Cisbio, France). HEK293 cells were transfected using a 0.5% EP4 Bacman virus for 36 hours, before dissociating the cells, and freezing at […].
# On the day of testing, increasing concentration of test compounds, alongside positive controls (1 uM ONO-AE3-208) and negative control (DMSO (Sigma-Aldrich, UK) were added to a ProxiPlate-384 Plus, White 384-shallow well Mircoplate, (PerkinElmer, USA) using the ECHO dispense.
# Cells were defrosted in a water bath and resuspended in DMEM supplemented with 10% FBS before centrifuging at 1200 RPM for 5 mins to form a pellet. The pellet was resuspended in assay buffer (DMEM+0.5 mM IBMX (Tocris, Abingdon, UK, Catalog Number 2845)) to a 1×10^6 cells/mL. Cell suspension, for a final assay concentration of 5000 cell/well was added using the multidrop to the pre-dispensed assay plate. The plate was then incubated at 37° C. for 30 mins, with 5% CO2. After incubation, EC80 concentration (7 nM) of PGE2 (EP4 agonist) was added to the plate. In parallel, a PGE2 dose-response curve was dispense to a separate plate. Assay buffer was then dispensed on top. The cAMP production was determined as manufacturer's instructions, before plates were read on a PheraStar fluorescence plate reader (BMG LabTech, Germany).
# The pIC50 was converted to a functional pKb value using a modified Cheng Prussoff equation where Kd=agonist EC50 and Lhot=agonist challenge concentration;
# T1 sequence (P35408 whole entry): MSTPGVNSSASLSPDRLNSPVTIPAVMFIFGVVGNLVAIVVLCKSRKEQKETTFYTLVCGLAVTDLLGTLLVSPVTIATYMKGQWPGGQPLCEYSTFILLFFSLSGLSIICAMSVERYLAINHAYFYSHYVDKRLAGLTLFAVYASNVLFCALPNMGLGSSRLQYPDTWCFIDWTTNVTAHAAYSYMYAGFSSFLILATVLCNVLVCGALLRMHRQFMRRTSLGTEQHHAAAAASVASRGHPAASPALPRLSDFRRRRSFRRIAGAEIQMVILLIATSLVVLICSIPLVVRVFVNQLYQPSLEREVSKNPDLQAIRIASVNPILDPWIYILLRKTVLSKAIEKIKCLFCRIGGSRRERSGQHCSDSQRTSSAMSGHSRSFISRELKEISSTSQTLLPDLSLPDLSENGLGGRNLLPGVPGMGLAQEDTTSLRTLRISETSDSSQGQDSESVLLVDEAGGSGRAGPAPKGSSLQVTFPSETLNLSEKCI
row,Ki [nM],SMILES
1,0.603,"CC(C)[C@@H](OCc1ccc(C(F)F)c(F)c1)C(=O)N[C@@H](C)c1ccc(C(=O)O)cc1 [Example 29, 4-((S)-1-((R)-2-((4-(difluoromethyl)-3-fluorobenzyl)oxy)-3-methylbutanamido)ethyl)benzoic acid]"
2,13.8,"CC(C)[C@@H](OCc1ccc(C(F)(F)F)cn1)C(=O)N[C@@H](C)c1ccc(C(=O)O)cc1 [Example 25, 4-((S)-1-((R)-3-methyl-2-((5-(trifluoromethyl)pyridin-2-yl)methoxy)butanamido)ethyl)benzoic acid]"
3,1.74,"CC(C)[C@@H](OCc1ccc(F)cc1)C(=O)N[C@@H](C)c1ccc(-c2nnn[nH]2)cc1 [Example 42, (R)—N—((S)-1-(4-(1H-tetrazol-5-yl)phenyl)ethyl)-2-((4-fluorobenzyl)oxy)-3-methylbutanamide]"
4,1.82,"CC(C)[C@@H](OCc1cccc(C(F)F)c1)C(=O)N[C@@H](C)c1ccc(C(=O)O)cc1 [Example 14, 4-((S)-1-((R)-2-((3-(difluoromethyl)benzyl)oxy)-3-methylbutanamido)ethyl)benzoic acid]"
5,0.151,"CC(C)[C@@H](OCc1ccc2c(c1)OC(F)(F)O2)C(=O)N[C@@H](C)c1ccc(C(=O)O)cc1 [Example 28, 4-((S)-1-((R)-2-((2,2-difluorobenzo[d][1,3]dioxol-5-yl)methoxy)-3-methylbutanamido)ethyl)benzoic acid]"
6,0.562,"CC(C)[C@@H](OCc1cc(OC(F)F)ccn1)C(=O)NC1(c2ccc(C(=O)O)cc2)CC1 [Example 68, (R)-4-(1-(2-((4-(difluoromethoxy)pyridin-2-yl)methoxy)-3-methylbutanamido)cyclopropyl)benzoic acid]"
7,6.76,"CC(C)[C@@H](OCc1ccc(F)c(C2CC2)c1)C(=O)NC1(c2ccc(C(=O)O)cc2)CC1 [Example 89, (R)-4-(1-(2-((3-cyclopropyl-4-fluorobenzyl)oxy)-3-methylbutanamido)cyclopropyl)benzoic acid]"
8,0.186,"CC(C)[C@@H](OCc1cccc(C2CC2)c1)C(=O)N[C@@H](C)c1ccc(-c2nnn[nH]2)cc1 [Example 83, (R)—N—((S)-1-(4-(1H-tetrazol-5-yl)phenyl)ethyl)-2-((3-cyclopropylbenzyl)oxy)-3-methylbutanamide]"
9,1.48,"O=C(O)c1ccc(C2(NC(=O)C(OCc3cccc(Cl)c3)C3CCC3)CC2)cc1 (stereo not shown) [Example 98, 4-(1-(2-((3-chlorobenzyl)oxy)-2-cyclobutylacetamido)cyclopropyl)benzoic acid]"
10,7.24,"CC(C)[C@@H](OCc1cccc(C#N)c1)C(=O)N[C@@H](C)c1ccc(C(=O)O)cc1 [Example 22, 4-((S)-1-((R)-2-((3-cyanobenzyl)oxy)-3-methylbutanamido)ethyl)benzoic acid]"
11,12.6,"O=C(O)c1ccc(C2(NC(=O)C(OCc3ccc(F)c(F)c3)C3CCC3)CC2)cc1 (stereo not shown) [Example 97, 4-(1-(2-cyclobutyl-2-((3,4-difluorobenzyl)oxy)acetamido)cyclopropyl)benzoic acid]"
12,0.479,"CC(C)[C@@H](OCc1ccc2c(c1)OC(F)(F)O2)C(=O)NC1(c2ccc(C(=O)O)cc2)CC1 [Example 55, (R)-4-(1-(2-((2,2-difluorobenzo[d][1,3]dioxol-5-yl)methoxy)-3-methylbutanamido)cyclopropyl)benzoic acid]"
13,33.1,"CC(C)[C@@H](OCc1ccc(C(F)(F)F)nc1)C(=O)NC1(c2ccc(C(=O)O)cc2)CC1 [Example 76, (R)-4-(1-(3-methyl-2-((6-(trifluoromethyl)pyridin-3-yl)methoxy)butanamido)cyclopropyl)benzoic acid]"
14,0.0871,"CC(C)[C@@H](OCc1cccc(OC(F)F)c1)C(=O)N[C@@H](C)c1ccc(-c2nnn[nH]2)cc1 [Example 82, (R)—N—((S)-1-(4-(1H-tetrazol-5-yl)phenyl)ethyl)-2-((3-(difluoromethoxy)benzyl)oxy)-3-methylbutanamide]"
15,0.955,"CC(C)[C@@H](OCc1ccc(C(F)(F)F)cc1)C(=O)NC1(c2ccc(-c3nnn[nH]3)cc2)CC1 [Example 69, (R)—N-(1-(4-(1H-tetrazol-5-yl)phenyl)cyclopropyl)-3-methyl-2-((4-(trifluoromethyl)benzyl)oxy)butanamide]"
16,27.5,"CC(C)[C@@H](OCc1ccc(S(F)(F)(F)(F)F)cc1)C(=O)N[C@@H](C)c1ccc(C(=O)O)cc1 [Example 26, 4-((S)-1-((R)-3-methyl-2-((4-(pentafluoro-λ^6-sulfaneyl)benzyl)oxy)butanamido)ethyl)benzoic acid]"

# The remaining lines, values behind:
row,SMILES,Ki [nM]
1,"CC(C)[C@@H](OCc1ccc(F)cc1)C(=O)N[C@@H](C)c1ccc(C(=O)NS(=O)(=O)C2CC2)cc1 [Example 81, N-(cyclopropylsulfonyl)-4-((S)-1-((R)-2-((4-fluorobenzyl)oxy)-3-methylbutanamido)ethyl)benzamide]",302
2,"CC(C)[C@@H](OCc1cccc(S(C)(=O)=O)c1)C(=O)N[C@@H](C)c1ccc(C(=O)O)cc1 [Example 8, 4-((S)-1-((R)-3-methyl-2-((3-(methylsulfonyl)benzyl)oxy)butanamido)ethyl)benzoic acid]",8.71
3,"CC(C)[C@@H](OCc1cccc(OC(F)(F)F)c1)C(=O)N[C@@H](C)c1ccc(C(=O)O)cc1 [Example 20, 4-((S)-1-((R)-3-methyl-2-((3-(trifluoromethoxy)benzyl)oxy)butanamido)ethyl)benzoic acid]",0.0955
4,"CC(C)C(OCc1cccc(C2COC2)c1)C(=O)NC1(c2ccc(C(=O)O)cc2)CC1 (single isomer, unassigned) [Example 87, 4-(1-(3-methyl-2-((3-(oxetan-3-yl)benzyl)oxy)butanamido)cyclopropyl)benzoic acid]",> 603
5,"CC(O[C@@H](C(=O)N[C@@H](C)c1ccc(C(=O)O)cc1)C(C)C)c1ccc(F)cc1 (mixture of isomers) [Example 46, 4-((1 S)-1-((2R)-2-(1-(4-fluorophenyl)ethoxy)-3-methylbutanamido)ethyl)benzoic acid]",7.24
6,"CC(C)C(OCc1cccc(C2COC2)c1)C(=O)N[C@@H](C)c1ccc(C(=O)O)cc1 (single isomer, unassigned) [Example 49]",2.29
7,"CC(C)[C@@H](OCc1ccc(C(F)F)cn1)C(=O)N[C@@H](C)c1ccc(C(=O)O)cc1 [Example 34, 4-((S)-1-((R)-2-((5-(difluoromethyl)pyridin-2-yl)methoxy)-3-methylbutanamido)ethyl)benzoic acid]",20.9
8,"CC(C)[C@@H](OCc1ccc(F)c(Cl)c1)C(=O)NC1(c2ccc(C(=O)O)cc2)CC1 [Example 78, (R)-4-(1-(2-((3-chloro-4-fluorobenzyl)oxy)-3-methylbutanamido)cyclopropyl)benzoic acid]",> 20900
9,"CC(C)[C@@H](OCc1cccc(O)c1)C(=O)N[C@@H](C)c1ccc(C(=O)O)cc1 [Example 38, 4-((S)-1-((R)-2-((3-hydroxybenzyl)oxy)-3-methylbutanamido)ethyl)benzoic acid]",> 4680
10,"CC(C)[C@@H](OCc1ccc(C(F)F)c(F)c1)C(=O)NC1(c2ccc(C(=O)O)cc2)CC1 [Example 61, (R)-4-(1-(2-((4-(difluoromethyl)-3-fluorobenzyl)oxy)-3-methylbutanamido)cyclopropyl)benzoic acid]",0.339
11,"CC(C)[C@@H](OCc1ccc(OC(F)F)cc1)C(=O)N[C@@H](C)c1ccc(C(=O)O)cc1 [Example 23, 4-((S)-1-((R)-2-((4-(difluoromethoxy)benzyl)oxy)-3-methylbutanamido)ethyl)benzoic acid]",14.5
12,"CC(C)[C@@H](OCc1cccc(C2CC2)c1)C(=O)N[C@@H](C)c1ccc(C(=O)O)cc1 [Example 39, 4-((S)-1-((R)-2-((3-cyclopropylbenzyl)oxy)-3-methylbutanamido)ethyl)benzoic acid]",0.229
